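96-well plates; 48 h exposure; 5 concentrations. Endpoints by linear interpolation between flanking doses. Not reached: highest tested concentration assigned. GI50 marks 50% less growth. The concentration for full growth arrest is given as TGI.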
Key:
Assay in all cases: DTP human tumour cell line panel, 48 h
SK-MEL-2 melanoma = test system: SK-MEL-2 melanoma
OVCAR-3 ovarian = test system: OVCAR-3 ovarian
SR leukemia = test system: SR leukemia
OVCAR-5 ovarian = test system: OVCAR-5 ovarian
SNB-75 CNS = test system: SNB-75 CNS
RXF 393 renal = test system: RXF 393 renal
HOP-92 NSCLC = test system: HOP-92 NSCLC
BT-549 breast = test system: BT-549 breast
DU-145 prostate = test system: DU-145 prostate
T-47D breast = test system: T-47D breast
A498 renal = test system: A498 renal
M14 melanoma = test system: M14 melanoma
TK-10 renal = test system: TK-10 renal
ACHN renal = test system: ACHN renal
CCRF-CEM leukemia = test system: CCRF-CEM leukemia
MALME-3M melanoma = test system: MALME-3M melanoma
SW-620 colon = test system: SW-620 colon
SN12C renal = test system: SN12C renal
MCF7 breast = test system: MCF7 breast
NCI-H522 lung = test system: NCI-H522 lung
SK-OV-3 ovarian = test system: SK-OV-3 ovarian
K-562 leukemia = test system: K-562 leukemia
UACC-62 melanoma = test system: UACC-62 melanoma
UO-31 renal = test system: UO-31 renal
LOX IMVI melanoma = test system: LOX IMVI melanoma
CAKI-1 renal = test system: CAKI-1 renal
MDA-MB-435 = test system: MDA-MB-435
HOP-62 NSCLC = test system: HOP-62 NSCLC
U251 CNS = test system: U251 CNS
UACC-257 melanoma = test system: UACC-257 melanoma
NCI-H23 lung = test system: NCI-H23 lung
HS 578T breast = test system: HS 578T breast
NCI-H226 lung = test system: NCI-H226 lung
MDA-MB-231 breast = test system: MDA-MB-231 breast
SK-MEL-28 melanoma = test system: SK-MEL-28 melanoma
A549 NSCLC = test system: A549 NSCLC
OVCAR-8 ovarian = test system: OVCAR-8 ovarian
HCT-15 colon = test system: HCT-15 colon
HT29 colon = test system: HT29 colon
NCI-H460 lung = test system: NCI-H460 lung
786-0 renal = test system: 786-0 renal
RPMI-8226 leukemia = test system: RPMI-8226 leukemia
SNB-19 CNS = test system: SNB-19 CNS
NCI/ADR-RES ovarian = test system: NCI/ADR-RES ovarian
EKVX NSCLC = test system: EKVX NSCLC
MOLT-4 leukemia = test system: MOLT-4 leukemia
HCT-116 colon = test system: HCT-116 colon
SF-268 CNS = test system: SF-268 CNS
SF-539 CNS = test system: SF-539 CNS
PC-3 prostate = test system: PC-3 prostate
KM12 colon = test system: KM12 colon
OVCAR-4 ovarian = test system: OVCAR-4 ovarian
SF-295 CNS = test system: SF-295 CNS
SK-MEL-5 melanoma = test system: SK-MEL-5 melanoma
IGROV1 ovarian = test system: IGROV1 ovarian
COLO 205 colon = test system: COLO 205 colon
HCC-2998 colon = test system: HCC-2998 colon

CC(Cc1ccc(O)cc1)NCC(O)c1ccc(O)c(O)c1 (stereo not given)
TGI (SK-MEL-2 melanoma): > 100 µM | TGI (OVCAR-3 ovarian): > 100 µM | TGI (SR leukemia): > 100 µM | TGI (OVCAR-5 ovarian): > 100 µM | TGI (SNB-75 CNS): > 100 µM | TGI (RXF 393 renal): > 100 µM | TGI (HOP-92 NSCLC): > 100 µM | TGI (BT-549 breast): > 100 µM | TGI (DU-145 prostate): > 100 µM | TGI (T-47D breast): > 100 µM | TGI (A498 renal): > 100 µM | TGI (M14 melanoma): > 100 µM | TGI (TK-10 renal): > 100 µM | TGI (ACHN renal): > 100 µM | TGI (CCRF-CEM leukemia): > 100 µM | TGI (MALME-3M melanoma): > 100 µM | TGI (SW-620 colon): > 100 µM | TGI (SN12C renal): > 100 µM | TGI (MCF7 breast): > 100 µM | TGI (NCI-H522 lung): > 100 µM | TGI (SK-OV-3 ovarian): > 100 µM | TGI (K-562 leukemia): > 100 µM | TGI (UACC-62 melanoma): > 100 µM | TGI (UO-31 renal): > 100 µM | TGI (LOX IMVI melanoma): > 100 µM | TGI (CAKI-1 renal): > 100 µM | TGI (MDA-MB-435): > 100 µM | TGI (HOP-62 NSCLC): > 100 µM | TGI (U251 CNS): > 100 µM | TGI (UACC-257 melanoma): > 100 µM | TGI (NCI-H23 lung): > 100 µM | TGI (HS 578T breast): > 100 µM | TGI (NCI-H226 lung): > 100 µM | TGI (MDA-MB-231 breast): > 100 µM | TGI (SK-MEL-28 melanoma): > 100 µM | TGI (A549 NSCLC): > 100 µM | TGI (OVCAR-8 ovarian): > 100 µM | TGI (HCT-15 colon): > 100 µM | TGI (HT29 colon): > 100 µM | TGI (NCI-H460 lung): > 100 µM | TGI (786-0 renal): > 100 µM | TGI (RPMI-8226 leukemia): > 100 µM | TGI (SNB-19 CNS): > 100 µM | TGI (NCI/ADR-RES ovarian): > 100 µM | TGI (EKVX NSCLC): > 100 µM | TGI (MOLT-4 leukemia): > 100 µM | TGI (HCT-116 colon): > 100 µM | TGI (SF-268 CNS): > 100 µM | TGI (SF-539 CNS): > 100 µM | TGI (PC-3 prostate): > 100 µM | TGI (KM12 colon): > 100 µM | TGI (OVCAR-4 ovarian): > 100 µM | TGI (SF-295 CNS): > 100 µM | TGI (SK-MEL-5 melanoma): > 100 µM | TGI (IGROV1 ovarian): > 100 µM

Cc1c(-c2ccc(O)c(O)c2)oc(=O)c2c(O)cc(O)cc12
GI50 (SK-MEL-2 melanoma): 26 µM | TGI (SK-MEL-2 melanoma): > 100 µM | GI50 (COLO 205 colon): 67.4 µM | TGI (COLO 205 colon): > 100 µM | GI50 (OVCAR-3 ovarian): 11.1 µM | TGI (OVCAR-3 ovarian): 57.8 µM | GI50 (SR leukemia): 4.52 µM | TGI (SR leukemia): > 100 µM | GI50 (OVCAR-5 ovarian): 42.9 µM | TGI (OVCAR-5 ovarian): > 100 µM | GI50 (RXF 393 renal): 49.8 µM | TGI (RXF 393 renal): > 100 µM | GI50 (HOP-92 NSCLC): 17.2 µM | TGI (HOP-92 NSCLC): > 100 µM | GI50 (BT-549 breast): 6.78 µM | TGI (BT-549 breast): 43.2 µM | GI50 (DU-145 prostate): 28.8 µM | TGI (DU-145 prostate): > 100 µM | GI50 (T-47D breast): 88.7 µM | TGI (T-47D breast): > 100 µM | GI50 (A498 renal): 20.7 µM | TGI (A498 renal): 56.8 µM | GI50 (M14 melanoma): 8.07 µM | TGI (M14 melanoma): 68.3 µM | GI50 (TK-10 renal): 7.97 µM | TGI (TK-10 renal): 36 µM | GI50 (ACHN renal): 21.3 µM | TGI (ACHN renal): > 100 µM | GI50 (CCRF-CEM leukemia): 2.83 µM | TGI (CCRF-CEM leukemia): > 100 µM | GI50 (MALME-3M melanoma): 1.16 µM | TGI (MALME-3M melanoma): 10.3 µM | GI50 (SW-620 colon): 4.92 µM | TGI (SW-620 colon): > 100 µM | GI50 (SN12C renal): 14.5 µM | TGI (SN12C renal): 59.1 µM | GI50 (MCF7 breast): 39.1 µM | TGI (MCF7 breast): > 100 µM | GI50 (NCI-H522 lung): 5.08 µM | TGI (NCI-H522 lung): > 100 µM | GI50 (SK-OV-3 ovarian): 62.7 µM | TGI (SK-OV-3 ovarian): > 100 µM | GI50 (K-562 leukemia): 19.5 µM | TGI (K-562 leukemia): > 100 µM | GI50 (UACC-62 melanoma): 8.45 µM | TGI (UACC-62 melanoma): 45.1 µM | GI50 (UO-31 renal): 6.9 µM | TGI (UO-31 renal): > 100 µM | GI50 (LOX IMVI melanoma): 13.1 µM | TGI (LOX IMVI melanoma): > 100 µM | GI50 (CAKI-1 renal): 11.3 µM | TGI (CAKI-1 renal): 46.5 µM | GI50 (MDA-MB-435): 2.17 µM | TGI (MDA-MB-435): 6.14 µM | GI50 (HOP-62 NSCLC): 18.2 µM | TGI (HOP-62 NSCLC): 61.5 µM | GI50 (U251 CNS): 9.67 µM | TGI (U251 CNS): > 100 µM | GI50 (UACC-257 melanoma): 14.4 µM | TGI (UACC-257 melanoma): 53.3 µM | GI50 (HS 578T breast): 9.69 µM | TGI (HS 578T breast): 91.9 µM | GI50 (NCI-H226 lung): 21.3 µM | TGI (NCI-H226 lung): > 100 µM | GI50 (MDA-MB-231 breast): 86.8 µM | TGI (MDA-MB-231 breast): > 100 µM | GI50 (SK-MEL-28 melanoma): 19.8 µM | TGI (SK-MEL-28 melanoma): > 100 µM | GI50 (A549 NSCLC): 19.4 µM | TGI (A549 NSCLC): > 100 µM | GI50 (OVCAR-8 ovarian): 17.9 µM | TGI (OVCAR-8 ovarian): 90 µM | GI50 (HCT-15 colon): 9.66 µM | TGI (HCT-15 colon): > 100 µM | GI50 (HT29 colon): 54.1 µM | TGI (HT29 colon): > 100 µM | GI50 (NCI-H460 lung): 12.1 µM | TGI (NCI-H460 lung): > 100 µM | GI50 (786-0 renal): 14.4 µM | TGI (786-0 renal): > 100 µM | GI50 (RPMI-8226 leukemia): 7.69 µM | TGI (RPMI-8226 leukemia): 45.3 µM | GI50 (SNB-19 CNS): 45.6 µM | TGI (SNB-19 CNS): > 100 µM | GI50 (NCI/ADR-RES ovarian): 14.1 µM | TGI (NCI/ADR-RES ovarian): > 100 µM | GI50 (EKVX NSCLC): 15.7 µM | TGI (EKVX NSCLC): 63.9 µM | GI50 (MOLT-4 leukemia): 42.8 µM | TGI (MOLT-4 leukemia): > 100 µM | GI50 (HCC-2998 colon): 31.5 µM | TGI (HCC-2998 colon): 88.6 µM | GI50 (HCT-116 colon): 14 µM | TGI (HCT-116 colon): > 100 µM | GI50 (SF-268 CNS): 11.1 µM | TGI (SF-268 CNS): > 100 µM | GI50 (SF-539 CNS): 13.2 µM | TGI (SF-539 CNS): 63.7 µM | GI50 (PC-3 prostate): 29.5 µM | TGI (PC-3 prostate): > 100 µM | GI50 (KM12 colon): 12.2 µM | TGI (KM12 colon): 54.7 µM | GI50 (OVCAR-4 ovarian): 46.5 µM | TGI (OVCAR-4 ovarian): > 100 µM | GI50 (SF-295 CNS): 7.52 µM | TGI (SF-295 CNS): 28.9 µM | GI50 (SK-MEL-5 melanoma): 6.59 µM | TGI (SK-MEL-5 melanoma): 30.8 µM | GI50 (IGROV1 ovarian): 2.3 µM | TGI (IGROV1 ovarian): 6.34 µM
